In US9492450B2, “Inhibition of dynamin related protein 1 to promote cell death” (University of Pittsburgh—of the Commonwealth System of …, priority 2011, dated 2016):

Key:
[1] = test system: primary epithelial ovarian cancer (EOC) cells; assay: Ex vivo drug sensitivity assay on primary cells from ovarian cancer patient ascites; type: cell-based, human; conditions: MTS 72 h
Method: FIG. 20A-C. The combination of cisplatin and mdivi-1 efficiently overcomes acquired cisplatin resistance in human ovarian cancer cells, including those from endstage cisplatin- and treatment-refractory patient. (A) The comparison of cisplatin sensitivity in ovarian cancer cells A2780 and their derivative cisplatin-resistant A2780cis cells (left panel). A2780cis cells were treated with cisplatin alone or in combination with mdivi-1 for 72 h (right panel). The survival was determined by MTS assay. (B and C) Ex vivo drug sensitivity assay using primary EOC cells isolated from ascites fluid of ovarian cancer patients (B, treatment-naïve; C, cisplatin-resistant). Apoptosis was measured by caspase-3/7 activity assay after 20 h exposure and the survival was measured by MTS assay after 72 h exposure. […]
(§1) Cell proliferation was determined using a CyQUANT Direct Cell Proliferation Assay kit (Invitrogen), the activity of caspase-3/7 was measured using a Caspase-Glo 3/7 Assay Systems (Promega, Madison, Wis.), and the MTS colorimetric survival assay was performed using the CellTiter 96 AQueous One Solution Cell Proliferation Assay kit (Promega, Madison, Wis.), according to the manufacturer's instructions. The survival fractions were calculated after setting untreated control cells at 100%. […] The cytotoxic interactions between the two drugs was determined using the method of Chou and Talalay. […]

MDA-MB-231 cells [2] = assay: CyQUANT growth assay, continuous exposure; type: cell-based, human; conditions: various concentrations
Method: To test the effect of Drp1 inhibition on tumor cells, MDA-MB-231 cells were plated in black 96-well plates and treated with various concentrations of mdivi-1. Cell numbers were measured by CyQUANT assay every day.

[3] = test system: Drp1 wild-type (WT) and knockout (KO) SV40-transformed MEF cells; assay: Drp1 wild-type and knockout MEF cells: cleaved caspase-3, CyQuant, OCR; type: cell-based, mouse
Method: FIG. 21A-F. Mdivi-1 enhances cisplatin sensitivity through Drp1-independent mechanisms. (A) Confirmation of the depletion of Drp1 in Drp1 knockout SV40-transformed MEF cells by western blot. (B) Drp1 wild-type (Drp1+/+) and knockout (Drp1−/−) MEF cells were treated as indicated for 20 h, and the number of apoptotic cells was determined by antibody recognizing cleaved caspase-3. […] (C) Drp1 wild-type and knockout MEF cells were treated with mdivi-1 for 24 h, and the cell number were determined by CyQuant assay. (D) OCR was measured after 1 h treatment of Drp1 wild-type and knockout MEF cells with DMSO or mdivi-1. (E) The combination effect of cisplatin with four analogs of mdivi-1. […]
as §1, with “Talalay. The combination index (CI) was determined using a computer program CompuSyn.” for “Talalay.”

[4] = Solubility of mdivi-1 with carrier compounds; type: physicochemical; conditions: 1 mM mdivi-1
Drp1 = conditions: as said in Cassidy-Stone et al., Dev Cell 14:193-204; cited from earlier work
MDA-MB-231 cells [5] = assay: MTS colorimetric survival assay; type: cell-based, human; conditions: agent alone, 72 h, read-out: IC50, inhibition of growth / survival
Method: FIG. 19A-E. Combination of cisplatin and mdivi-1 produces synergistic pro-apoptotic effect in multidrug resistant tumor cells. (A) MDA-MB-231 cells were treated with increasing doses of mdivi-1 for 72 h. The survival was assessed by MTS assay. […] (B) MDA-MB-231 cells were treated with increasing doses of cisplatin alone or the combination with 20 μM or 50 μM of mdivi-1 for 72 h. The survival was assessed by MTS assay. (C) MDA-MB-231 cells were exposed to cisplatin and mdivi-1 alone or combination at their IC50 or 0.5 fold of their IC50. The combination index (CI) and the normalized isobologram were generated using CompuSyn. […] The compounds were then washed out and the cell number was determined every 24 h by CyQuant assay. […] The number of apoptotic cells was determined with antibody recognizing cleaved caspase-3 followed by flow cytometry.
Cell proliferation was determined using a CyQUANT Direct Cell Proliferation Assay kit (Invitrogen), the activity of caspase-3/7 was measured using a Caspase-Glo 3/7 Assay Systems (Promega, Madison, Wis.), and the MTS colorimetric survival assay was performed using the CellTiter 96 AQueous One Solution Cell Proliferation Assay kit (Promega, Madison, Wis.), according to the manufacturer's instructions. The survival fractions were calculated after setting untreated control cells at 100%. […]

MDA-MB-231 cells [6] = assay: DNA content flow cytometry (propidium iodide): G2/M arrest and aneuploidy; type: cell-based, human; conditions: mdivi-1 50 μM 24 and 48 h, siRNA 72 and 96 h
Method: Cell cycle distribution was determined by flow cytometric analysis of propidium iodide stained cells. The percentage of the cells containing a DNA content of 4N and a DNA content>4N are indicated. […] MDA-MB-231 cells were treated with either 5 μg/ml oligomycin, 5 μM FCCP, or 10 μg/ml antimycin A for 24 h. Cell cycle distribution was determined as described above.
Cell cycle distribution was determined by flow cytometric analysis of propidium iodide stained cells. The percentage of the cells containing a DNA content of 4N and >4N are indicated. Data presented in this figure are representative of three independent experiments.
For DNA content analysis, cells were trypsinized and fixed in 70% ice-cold ethanol overnight at 4° C. After fixation, the cells were washed with 1% BSA/PBS, and permeabilized using 0.25% triton-X 100 in 1% BSA/PBS. Cells were then incubated in PI solution (PBS containing 50 μg/ml of PI and 40 μg/ml of RNase A) for 30 min at room temperature.

Compound | IC50 ([1]; EOC cells of a patient not treated with cisplatin (treatment-naïve)) [µM] | IC50 ([1]; EOC cells of a patient with clinically-defined cisplatin resistance) [µM] | growth of cells (MDA-MB-231 cells [2]) | mitochondrial respiration (OCR) in Drp1 WT and KO cells ([3]; 1 h treatment) | cell proliferation (CyQuant) in Drp1 WT and KO cells ([3]; 24 h) | solubility of mdivi-1 ([4]; 40% 2-Hydroxypropyl-β-cyclodextrin/PBS) | solubility of mdivi-1 ([4]; human serum albumin as vehicle, 15% HSA in 0.85% sodium chloride) | efficacy in inhibiting Drp1 relative to mdivi-1 (Drp1) | IC50 (MDA-MB-231 cells [5]) [µM] | G2/M cell cycle arrest and aneuploidy (MDA-MB-231 cells [6]) | G2/M cell cycle arrest and aneuploidy (MDA-MB-231 cells [6]; listed as Mdivi-1)
N.N.[Cl][Pt][Cl] [cisplatin] | ~7.97 | ~11.6 |  |  |  |  |  |  |  |  | 
COc1cc(-n2c(=S)[nH]c3ccccc3c2=O)c(Cl)cc1Cl [mdivi-1] |  |  | inhibited the growth of MDA-MB-231 breast cancer cells in a dose-dependent manner | inhibition | inhibition of cell proliferation | improve the solubility | improve the solubility | full efficacy | 55.9 ± 1.92 | induces G2/M cell cycle arrest and aneuploidy | induced the similar G2/M cell cycle arrest and aneuploidy
